Assay results from paper PMC12494553, “A unique gating mechanism revealed by the cryo-EM structure of monomeric ATP9A flippase” (The Journal of Biological Chemistry, 2025).

Target: T1, ATP9A (Homo sapiens, UniProt O75110)
T1 construct: N-terminal region before Pro38 deleted; N-terminal His6-EGFP tag cut off with HRV-3C; HEK293S GnT1- (BacMam); LMNG/GDN micelles; monomer, about 90 kDa
T1 sequence (O75110 38-1047): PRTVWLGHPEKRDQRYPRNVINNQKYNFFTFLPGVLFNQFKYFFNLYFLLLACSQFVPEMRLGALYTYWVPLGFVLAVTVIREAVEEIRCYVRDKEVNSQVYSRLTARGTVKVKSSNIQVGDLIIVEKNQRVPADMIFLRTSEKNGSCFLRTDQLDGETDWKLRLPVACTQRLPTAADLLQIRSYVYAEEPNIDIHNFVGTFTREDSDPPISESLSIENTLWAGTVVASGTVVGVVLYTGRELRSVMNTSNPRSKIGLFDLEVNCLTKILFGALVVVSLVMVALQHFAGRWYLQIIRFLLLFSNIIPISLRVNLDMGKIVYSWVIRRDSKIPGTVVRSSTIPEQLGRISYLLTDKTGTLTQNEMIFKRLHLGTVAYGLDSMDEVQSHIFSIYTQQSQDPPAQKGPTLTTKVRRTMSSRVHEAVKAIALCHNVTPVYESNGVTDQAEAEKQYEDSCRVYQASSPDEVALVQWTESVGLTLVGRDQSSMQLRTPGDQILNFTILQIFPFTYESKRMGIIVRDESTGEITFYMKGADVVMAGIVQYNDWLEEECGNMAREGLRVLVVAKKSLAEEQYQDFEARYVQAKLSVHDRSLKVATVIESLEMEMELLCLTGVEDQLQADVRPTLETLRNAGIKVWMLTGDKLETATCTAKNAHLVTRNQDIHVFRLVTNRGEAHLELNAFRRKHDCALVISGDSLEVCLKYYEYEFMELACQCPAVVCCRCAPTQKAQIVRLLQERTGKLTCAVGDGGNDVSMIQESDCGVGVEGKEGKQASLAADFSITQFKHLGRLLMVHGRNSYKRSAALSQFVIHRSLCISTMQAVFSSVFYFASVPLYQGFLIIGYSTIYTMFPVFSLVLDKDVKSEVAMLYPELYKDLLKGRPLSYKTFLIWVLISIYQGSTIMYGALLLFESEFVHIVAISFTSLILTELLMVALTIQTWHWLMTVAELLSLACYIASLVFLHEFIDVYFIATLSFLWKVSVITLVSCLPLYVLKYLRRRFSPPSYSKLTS
Experiment: cryo-EM structure
Assay type: binding

Row | SMILES | cryo-EM structure (open form, E2P BeF state, lipid modelled from density, not added, outside canonical phospholipid site) | cryo-EM structure (phosphate analog bound at catalytic Asp391, E2P state, open (9VDK, 2.18 Å) and closed (9VDL, 2.31 Å) forms, made from 1 mM BeSO4 and 3 mM NaF, also used as ATPase blank)
1 | CC(C)CCC[C@@H](C)[C@H]1CC[C@H]2[C@@H]3CC=C4C[C@@H](O)CC[C@]4(C)[C@H]3CC[C@]12C [CLR, cholesterol] | Bound phospholipids (PLs) and cholesterol (CLR) in the open form are indicated | 
2 | [F][Be-]([F])[F] [BeF] |  | The phosphate analog BeF is bound to the catalytic Asp391
